Results from patent publication US11331102B2, “Purified pentagalloyl glucose and devices for delivery” (Nectero Medical, Inc., priority 2018, dated 2022).

Assay: studies of the concentration at which PGG of a given purity may be safely delivered
Details: depends on purity of the PGG; toxic impurities gallic acid and methyl gallate
Excerpt: The concentrations of PGG which may be safely delivered to a patient may be generally proportional to the purity of the PGG. For example, gallic acid, depicted in FIG. 1B, and methyl gallate, depicted in FIG. 1C, are common cytotoxic impurities which may be removed from a source batch of PGG during the purification process. Eliminating the presence of or reducing the concentration of toxic impurities from the delivered PGG may allow higher concentrations of the PGG to be delivered due to the mitigation of the toxic side effects of impurities commonly found in isolated PGG. For instance, studies have shown that substantially 100% pure PGG may be safely delivered at concentrations up to approximately 0.330% (w/v), 95% pure PGG may be safely delivered at concentrations up to approximately 0.125% (w/v), and 85% pure PGG may be safely delivered at concentrations up to approximately 0.06% (w/v). Delivery of PGG in higher concentrations may enhance the amount of uptake of PGG by the target tissue which may increase the efficacy of the PGG treatment. Delivery of PGG in higher concentrations may increase the rate of uptake of PGG by the tissue allowing the same amount of uptake in shorter delivery times. Reducing or minimizing the delivery time may be advantageous for reducing the overall treatment time, and particularly the duration of time for which a blood vessel, such as the aorta, is potentially occluded, as described elsewhere herein. Minimization of the treatment time and particularly the duration of blood occlusion may improve the safety and convenience of the treatment procedure and improve patient outcomes.

Substance	concentration up to which PGG may be safely delivered
1,2,3,4,6-pentagalloyl glucose [85% pure PGG]	≤ 0.06 % (w/v)
1,2,3,4,6-pentagalloyl glucose [95% pure PGG]	≤ 0.125 % (w/v)
1,2,3,4,6-pentagalloyl glucose [substantially 100% pure PGG]	≤ 0.330 % (w/v)
